Where “and” joins values, the source holds several entries; their conditions need not be identical. Identical values can stand only once. Inconclusive results and toxic doses are left out. The calls were made as follows: active = survival T/C of 150% or more; inactive = T/C below 125% in these data.
System: CD2F1 mice, L1210 leukemia ip, survival T/C
Test: NCI In Vivo Anticancer Drug Screen. Data for tumor model L1210 Leukemia (intraperitoneal) in CD2F1 (CDF1) mice
Details: endpoint: mean survival time, higher = longer survival
Method in brief: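 Transplantable tumor in mice; compound-treated vs vehicle-treated groups. Read-out = treated/control ratio of the measured endpoint.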

[1] = dose: 100.0 mg/kg/injection, schedule: Q04DX003 (ip), vehicle: saline with Tween-80
[2] = dose: 200.0 mg/kg/injection, schedule: Q04DX003 (ip), vehicle: saline with Tween-80
[3] = dose: 400.0 mg/kg/injection, schedule: Q04DX003 (ip), vehicle: saline with Tween-80
[4] = dose: 25.0 mg/kg/injection, schedule: Q04DX003 (ip), vehicle: saline with Tween-80
[5] = dose: 50.0 mg/kg/injection, schedule: Q04DX003 (ip), vehicle: saline with Tween-80
[6] = dose: 100.0 mg/kg/injection, schedule: Q01DX009 (ip), vehicle: saline with Tween-80
[7] = dose: 200.0 mg/kg/injection, schedule: Q01DX009 (ip), vehicle: saline with Tween-80
[8] = dose: 400.0 mg/kg/injection, schedule: Q01DX009 (ip), vehicle: saline with Tween-80
[9] = dose: 25.0 mg/kg/injection, schedule: Q01DX009 (ip), vehicle: saline with Tween-80
[10] = dose: 50.0 mg/kg/injection, schedule: Q01DX009 (ip), vehicle: saline with Tween-80
[11] = dose: 100.0 mg/kg/injection, schedule: Q04DX002 (ip), vehicle: saline
[12] = dose: 200.0 mg/kg/injection, schedule: Q04DX002 (ip), vehicle: saline

Measured: T/C

CC(=O)O[C@@H]1[C@@H](O)C2=C3[C@]4(C)[C@@H]1C(C)(C)C(=O)C[C@@H]4[C@]3(O)[C@H](OC(C)=O)[C@@]1(C[C@@H]1C)C2=O
inactive: dose: 3.12 mg/kg/injection, schedule: Q01DX009 (ip), vehicle: distilled water + Tween-80 102 % of control | dose: 3.12 mg/kg/injection, schedule: Q01DX009 (ip), vehicle: saline 96 % of control | dose: 6.25 mg/kg/injection, schedule: Q01DX009 (ip), vehicle: distilled water + Tween-80 105 % of control | dose: 6.25 mg/kg/injection, schedule: Q01DX009 (ip), vehicle: saline 102 % of control | dose: 12.5 mg/kg/injection, schedule: Q01DX009 (ip), vehicle: distilled water + Tween-80 100 % of control | dose: 12.5 mg/kg/injection, schedule: Q01DX009 (ip), vehicle: saline 104 % of control | dose: 25.0 mg/kg/injection, schedule: Q01DX009 (ip), vehicle: distilled water + Tween-80 100 % of control | dose: 25.0 mg/kg/injection, schedule: Q01DX009 (ip), vehicle: saline 104 % of control | dose: 50.0 mg/kg/injection, schedule: Q01DX009 (ip), vehicle: distilled water + Tween-80 103 % of control | dose: 50.0 mg/kg/injection, schedule: Q01DX009 (ip), vehicle: saline 108 % of control | dose: 100.0 mg/kg/injection, schedule: Q01DX009 (ip), vehicle: distilled water + Tween-80 96 % of control | dose: 100.0 mg/kg/injection, schedule: Q01DX009 (ip), vehicle: saline 111 % of control

Cn1c(=O)c2[nH]c(-c3ccc4c(c3)OCO4)nc2n(C)c1=O
inactive: [1] 89 % of control | [2] 92 % of control | [3] 88 % of control

CCOC(=O)C(C)C(C)(O)c1ccccc1 (stereo unspecified)
inactive: [1] 97 % of control | [2] 97 % of control | [3] 98 % of control

O=c1cc(C(F)(F)F)[nH]c2ccc(Br)cc12
inactive: dose: 12.5 mg/kg/injection, schedule: Q04DX003 (ip), vehicle: saline with Tween-80 97 % of control | [4] 95 % of control | [5] 97 % of control

COc1ccc(C2(O)C3CCC2CC3)cc1 (stereo unspecified)
inactive: dose: 12.5 mg/kg/injection, schedule: Q04DX002 (ip), vehicle: saline with Tween-80 96 % of control | dose: 25.0 mg/kg/injection, schedule: Q04DX002 (ip), vehicle: saline with Tween-80 101 % of control | dose: 50.0 mg/kg/injection, schedule: Q04DX002 (ip), vehicle: saline with Tween-80 108 % of control

COc1cccc2c1C(=O)c1c(OC)c(C)cc(OC)c1C2=O
inactive: dose: 12.5 mg/kg/injection, schedule: Q01DX009 (ip), vehicle: other 113 % of control | dose: 25.0 mg/kg/injection, schedule: Q01DX009 (ip), vehicle: other 110 % of control | dose: 50.0 mg/kg/injection, schedule: Q01DX009 (ip), vehicle: other 110 % of control | dose: 100.0 mg/kg/injection, schedule: Q01DX009 (ip), vehicle: other 110 % of control | dose: 200.0 mg/kg/injection, schedule: Q01DX009 (ip), vehicle: other 117 % of control

CC(=O)/C(N=Nc1ccc(S(=O)(=O)c2ccc(N=N/C(C(C)=O)=C(/C)O)cc2)cc1)=C(\C)O
inactive: [6] 86 % of control | [7] 86 % of control | [8] 102 % of control

Nc1ccc2c(c1)C(=O)c1ccccc1C2=O
inactive: [9] 98 % of control | [10] 98 % of control | [6] 101 % of control and 102 % of control | [7] 102 % of control | [8] 96 % of control

COC1C(CO)OC(n2cnc3c(=S)nc(N)[nH]c32)C1O (stereo unspecified)
inactive: dose: 12.5 mg/kg/injection, schedule: Q01DX009 (ip), vehicle: Klucel (hydroxypropylcellulose) (HPC) 98 % of control and 101 % of control | dose: 25.0 mg/kg/injection, schedule: Q01DX009 (ip), vehicle: Klucel (hydroxypropylcellulose) (HPC) 101 % of control and 106 % of control | dose: 50.0 mg/kg/injection, schedule: Q01DX009 (ip), vehicle: Klucel (hydroxypropylcellulose) (HPC) 101 % of control and 106 % of control | dose: 100.0 mg/kg/injection, schedule: Q01DX009 (ip), vehicle: Klucel (hydroxypropylcellulose) (HPC) 123 % of control | dose: 400.0 mg/kg/injection, schedule: Q01DX009 (ip), vehicle: Klucel (hydroxypropylcellulose) (HPC) 100 % of control

COc1cc(Cl)ccc1NC(=O)Nc1ccc(C(=O)O)cc1
inactive: [10] 95 % of control | [6] 95 % of control | [7] 91 % of control

O=C(Nc1cccc(Cl)c1)Nc1ccccc1Cl
inactive: [4] 93 % of control | [5] 96 % of control | [1] 95 % of control | [2] 89 % of control | [3] 97 % of control

CS(=O)CN(c1c(Cl)c(Cl)c(NS(=O)(=O)c2ccccc2)c(Cl)c1Cl)S(=O)(=O)c1ccccc1 (stereo unspecified)
inactive: dose: 100.0 mg/kg/injection, schedule: Q01DX001 (ip), vehicle: saline with Tween-80 96 % of control | dose: 200.0 mg/kg/injection, schedule: Q01DX001 (ip), vehicle: saline with Tween-80 92 % of control | dose: 400.0 mg/kg/injection, schedule: Q01DX001 (ip), vehicle: saline with Tween-80 92 % of control

Oc1ccc(O)c(/C=N/NC(=S)NC2CC3CC2C2C=CCC32)c1 (stereo unspecified)
inactive: dose: 12.5 mg/kg/injection, schedule: Q01DX009 (ip), vehicle: olive oil, sesame oil, peanut oil 93 % of control | dose: 25.0 mg/kg/injection, schedule: Q01DX009 (ip), vehicle: olive oil, sesame oil, peanut oil 96 % of control | dose: 50.0 mg/kg/injection, schedule: Q01DX009 (ip), vehicle: olive oil, sesame oil, peanut oil 100 % of control | dose: 100.0 mg/kg/injection, schedule: Q01DX009 (ip), vehicle: olive oil, sesame oil, peanut oil 102 % of control | dose: 200.0 mg/kg/injection, schedule: Q01DX009 (ip), vehicle: olive oil, sesame oil, peanut oil 87 % of control | dose: 400.0 mg/kg/injection, schedule: Q01DX009 (ip), vehicle: olive oil, sesame oil, peanut oil 94 % of control

C/C(=N\NC(=O)c1ccccc1)c1ccccc1
inactive: [6] 98 % of control | [7] 106 % of control | [8] 102 % of control

Oc1ccc(/C=N/NC(=S)Nc2ccccc2)nc1
inactive: dose: 100.0 mg/kg/injection, schedule: Q04DX002 (ip), vehicle: saline with Tween-80 106 % of control | dose: 200.0 mg/kg/injection, schedule: Q04DX002 (ip), vehicle: saline with Tween-80 106 % of control | dose: 400.0 mg/kg/injection, schedule: Q04DX002 (ip), vehicle: saline with Tween-80 95 % of control

Cc1ccc(NC(=O)Oc2ccc(C(C)(C)C)cc2Br)c(C)c1
inactive: [10] 101 % of control | [6] 96 % of control | [7] 116 % of control

OCC1OCOC(CO)C(O)C1O (stereo unspecified)
inactive: [11] 114 % of control | [12] 111 % of control | dose: 400.0 mg/kg/injection, schedule: Q04DX002 (ip), vehicle: saline 100 % of control

CN(Cc1ccccc1)Cc1ccccc1
inactive: [11] 100 % of control | [12] 94 % of control

COC(=O)CC(=O)C12OC1CC1C3CC=C4CC(OC(C)=O)CCC4(C)C3CCC12C (stereo unspecified)
inactive: dose: 75.0 mg/kg/injection, schedule: Q04DX003 (sc), vehicle: steriod suspending solution 101 % of control | dose: 150.0 mg/kg/injection, schedule: Q04DX003 (sc), vehicle: steriod suspending solution 103 % of control | dose: 300.0 mg/kg/injection, schedule: Q04DX003 (sc), vehicle: steriod suspending solution 97 % of control

C1=CCOCOC1
inactive: dose: 12.5 mg/kg/injection, schedule: Q01DX009 (ip), vehicle: saline with Tween-80 106 % of control | [9] 96 % of control | [10] 114 % of control and 102 % of control | [6] 100 % of control and 103 % of control | [1] 100 % of control | [7] 106 % of control | [2] 118 % of control

C(=C\c1nccc2c1[nH]c1ccccc12)/c1ccccc1
inactive: [1] 105 % of control | [2] 100 % of control | [3] 105 % of control

Source: PubChem BioAssay AID256 (DTP/NCI, 2004)
